# Values quoted from earlier work in patent US20220218792A1, “COMPOSITIONS TO PROMOTE THE HEALING OF SKIN ULCERS AND WOUNDS” (priority 2014, published 2022).
# Columns and labels:
# [1] = for gastric tolerability: oral
# [2] = tested on: Staphylococcus, Streptococcus, Neisseria, Escherichia, Proteus (indole-negative), Serratia, Salmonella, Shigella, Pseudomonas, Haemophilus, Vibrio; settings: aerobic genera
# [3] = tested on: Peptostreptococcus (including Peptoniphilus, Finegoldia and Anaerococcus) and Fusobacterium; settings: anaerobic genera
# [4] = tested on: polymorphonuclear leukocytes
# [5] = tested on: indole-positive Proteus spp., Klebsiella and Enterobacter spp.
# [6] = tested on: strains of organisms from the susceptible genera
# [7] = aqueous media at physiological pH
# [8] = not given; remark: listed apart in the source
# [9] = tested on: chronic wounds and ulcers; settings: topically applied; deep partial-thickness burns, chronic leg ulcers and leprosy ulcers
# [10] = tested on: wounds infected with Escherichia coli; settings: topically applied, rats
compound,measurement,setting,value
"C[C@@H]1O[C@@H]1P(=O)(O)O [fosfomycin, [(2R,3S)-3-methyloxiran-2-yl]phosphonic acid]",toxicity to mammalian cells and organs,[1]; intravenous doses of up to 0.5 g/kg/day in human patients,remarkably non-toxic
same,eosinophilia,[1]; patients,0.2%
same,transient rashes (allergy),[1]; patients,0.3 % of cases
same,transiently raised liver enzymes,[1]; patients,0.3 % of cases
same,bactericidal activity,[2],active
same,bactericidal activity,[3],active
same,concentration in polymorphonuclear leukocytes relative to extracellular fluid,[4],twice
same,bactericidal activity,[5],less active
same,strains showing synergistic effect,"[6]; early studies, various antibiotic combinations",70-100 % of tested strains
same,synergy rates,[6]; subsequent more extensive studies,36-74%
same,stability in aqueous media,[7],unstable
C[C@@H]1O[C@@H]1P(=O)(O)O [Fosfomycin calcium monohydrate],gastric tolerability,[1],less irritating to the stomach
same,solubility in water,,sparingly soluble
same,pH of 0.4% solution,[8]; 0.4% solution,8.1-9.6
C[C@@H]1O[C@@H]1P(=O)(O)O.NC(CO)(CO)CO [Fosfomycin trometamol],gastric tolerability,[1],well tolerated
same,solubility in water,,highly soluble
same,pH of 5% solution,[8],3.5-5.5
C[C@@H]1O[C@@H]1P(=O)(O)O [Fosfomycin disodium],gastric tolerability,[1],irritant to the stomach
same,solubility in water,,highly soluble
same,pH of 5% solution,[8],9.0-10.5
"GM-CSF: monomeric glycoprotein of 127 amino-acid residues, colony-stimulating factor (SEQ ID NO: 2)",healing of wounds and ulcers,[9],beneficial
same,bacterial counts,[10],reduced bacterial counts
same,wound closure,[10],accelerated wound closure
